Test: Dissolution measurements (Distek 2100B USP 2 dissolution system, UV/Vis probe at 324 nm)
Type: physicochemical
Conditions: 1 L deionized water, 200 rpm, amount for 20 ppm Compound I
Method: Dissolution Measurements: The performance of the sucrose/Compound I co-crystallized product was compared to that of the Compound I starting material and sucrose/Compound I powder mixtures under standard conditions using a Distek 2100B USP 2 dissolution system. Sufficient amounts of each sample were added in order to create 20 ppm solutions of Compound I. These amounts were 20 mg of pure Compound I, 200 mg of the 10% mixtures, 400 mg of the 5% mixtures and 2.00 g of the 1% mixtures in 1 L of deionized water. A stirring rate of 200 rpm was used.
The concentration of Compound I in solution was monitored continuously as a function of time using a UV/Vis spectrometer probe which measured absorbance at 324 nm.

For `CCCNC(=O)C(C)(C)COc1cccc2c1C(N)=NS(=O)(=O)N2` [100% Compound I, 3-(4-amino-2,2-dioxide-1H-benzo[c][1,2,6]thiadiazin-5-yloxy)-2′,2′-dimethyl-N-propylpropanamide], the Concentration in solution (Compound I in solution at 0.083 min) was −0.5 ppm, the Concentration in solution (Compound I in solution at 2 min) was 0.4 ppm and the Concentration in solution (Compound I in solution at 5 min) was 1.4 ppm. The Concentration in solution (Compound I in solution at 10 min) was 3.5 ppm, the Concentration in solution (Compound I in solution at 25 min) was 8.3 ppm and the Concentration in solution (Compound I in solution at 50 min) was 14.5 ppm. The Concentration in solution (Compound I in solution at 100 min) was 20.9 ppm.

From patent US11993821B2, “Co-crystallized sweeteners” (FIRMENICH SA, priority 2012, dated 2024)
